In patent US20210009542A1 (Calico Life Sciences LLC, priority 2018, published 2021):
Where two headings read alike, the source gives them in different places.

How the values were obtained:
[1] = tested on: B16F10 mouse melanoma cells; assay: B16F10 IFNγ-induced cellular growth inhibition assay; type: cell-based; conditions: Mus musculus, B16-F10, 33 μM compound
Procedure: B16F10 mouse melanoma cells (ATCC Cat ^#CRL-6475, Manassas, Va.) were seeded at a density of 500 cells per well in a 384-well clear bottom plate (Corning Cat^# 3765, Corning, N.Y.) in 25 μL total volume of DMEM+10% FBS (Sigma Cat ^#D6429 and Sigma Cat ^#F4135, St. Louis, Mo.). Cells were allowed to adhere overnight at 37° C.+5% CO2. On the following day, 12.5 μL of mouse IFNγ (RD systems Cat485-MI/CF, Minneapolis, Minn.) was added to half of the plate (columns 13-24) at a concentration of 2 ng/mL for a final assay concentration of 0.5 ng/mL of IFNγ. Media only (12.5 μL of DMEM+10% FBS) was added to the remainder of the plate (columns 1-12). Next, compounds resuspended in DMSO (Sigma Cat ^#D2650) at 100 mM were diluted in semi-log dilutions in DMSO ranging from 100 mM to 0.001 mM and DMSO only controls were included. The compound/DMSO dilutions were further diluted 1:250 in DMEM+10% FBS, and 12.5 μL of these dilutions were added in triplicates to cells of both treatment arms (with and without IFNγ). Final compound concentrations ranged from 100 μM to 0.001 μM with a final DMSO concentration of 0.1%. Compounds were only dosed in the inner 240 wells, avoiding the outer 2-well perimeter of the plate to minimize edge effects. Finally, the plate was loaded into an IncuCyte® S3 Live Cell Analysis System (Essen Bioscience-Sartorius, Ann Arbor, Mich.) maintained in a 37° C.+5% CO2 incubator, allowed to equilibrate for 2 hours, and imaged every 6 hours for 5 days. Confluence over time for compound dilutions in the presence and absence of IFNγ was measured. Growth inhibition values were obtained when the “DMSO/no IFNγ” control reached confluence >95%. At these time points, the percent growth inhibition of each compound at the indicated concentration was calculated relative to the “DMSO/with IFNγ” control.

[2] = biological target: T1, His tagged PTPN2 (TC45) protein (Homo sapiens, UniProt P17706); assay: Mobility shift assay (MSA) for potency of PTPN2 inhibitors; type: biochemical; conditions: read-out: PTPN2 MSA IC50
T1 construct: made in house
T1 sequence (P17706 with tags, fused parts or gaps isoform P17706-2): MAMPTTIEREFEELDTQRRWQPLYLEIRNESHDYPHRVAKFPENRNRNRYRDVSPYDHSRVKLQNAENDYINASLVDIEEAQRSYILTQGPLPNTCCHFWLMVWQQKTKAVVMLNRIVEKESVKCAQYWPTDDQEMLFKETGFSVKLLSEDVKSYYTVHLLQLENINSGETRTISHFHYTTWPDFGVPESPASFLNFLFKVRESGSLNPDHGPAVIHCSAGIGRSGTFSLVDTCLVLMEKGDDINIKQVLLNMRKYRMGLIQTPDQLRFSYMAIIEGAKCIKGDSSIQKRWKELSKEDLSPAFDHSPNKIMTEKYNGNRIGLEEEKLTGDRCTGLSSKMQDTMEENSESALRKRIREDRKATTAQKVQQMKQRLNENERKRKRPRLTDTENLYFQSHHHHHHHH
Procedure: Compound activity was determined using in house His tagged PTPN2 (TC45) protein (SEQ ID NO: 1) in an in vitro enzymatic reaction. The enzymatic assay used to determine activity was a mobility shift assay using a LabChip EZ Reader by Caliper Life Sciences. The enzymatic reaction was carried out in assay buffer (50 mM HEPES pH 7.5, 1 mM EGTA, 10 mM EDTA, 0.01% Tween® 20, and 2 mM DTT). The compounds were dispensed on a white 384 well ProxiPlate™ (PerkinElmer Catalog #6008289) plate using the Labcyte Echo at varying concentrations (12 point, 1:3 dilution). The enzyme (at 0.5 nM) was incubated with compound for 10 minutes at room temperature. Then the substrate (phosphorylated insulin receptor probe sequence: ((OG488)-(NH—CH2—CH2—O—CH2—CH2—O—CH2—CO)-T-R-D-I-(PY)-E-T-D-Y-Y-R-K-K-NH2) (SEQ ID NO: 2) was added at […] to the plates and incubated for another 10 minutes at room temperature. Finally, a quench solution (water and 4-bromo-3-(2-oxo-2-propoxyethoxy)-5-(3-{[1-(phenylmethanesulfonyl)piperidin-4-yl]amino}phenyl)thiophene-2-carboxylic acid) was added to the plates, which were then run on the EZ Reader (excitation 488 nm, emission 530 nm) to measure % conversion (the amount of phosphorylated substrate which was de-phosphorylated by PTPN2). […] The % inhibition was then used to calculate the IC50 values.

[3] = +0.5 ng/mL IFNγ, relative to DMSO control, read-out: % B16F10 growth inhibition (+0.5 ng/mL IFNγ) @ 33 μM
[4] = no IFNγ, read-out: % B16F10 growth inhibition (no IFNγ) @ 33 μM

Structure (SMILES)	inhibition at 33 µM [1, 3]	inhibition at 33 µM [1, 4]	IC50 [2]
O=C1CN(c2c(O)cc3ccc(OCCN4CCOCC4)cc3c2F)S(=O)(=O)N1 [Compound 100, 5-{1-fluoro-3-hydroxy-7-[2-(morpholin-4-yl)ethoxy]naphthalen-2-yl}-1λ^6,2,5-thiadiazolidine-1,1,3-trione]	> 90%	< 25%	1 to 10 nM
CC(C)NC(=O)Oc1ccc2cc(O)c(N3CC(=O)NS3(=O)=O)c(F)c2c1 [Compound 103, 8-fluoro-6-hydroxy-7-(1,1,4-trioxo-1λ^6,2,5-thiadiazolidin-2-yl)naphthalen-2-yl propan-2-ylcarbamate]	60 to 90%	< 25%	1 to 10 nM
O=C1CN(c2c(O)cc3ccc4occc4c3c2F)S(=O)(=O)N1 [Compound 104, 5-(9-fluoro-7-hydroxynaphtho[2,1-b]furan-8-yl)-1λ^6,2,5-thiadiazolidine-1,1,3-trione]	25 to 59%	< 25%	1 to 10 nM
O=C1CN(c2c(O)cc3ccc(OCCN4CCC4)cc3c2F)S(=O)(=O)N1 [Compound 105, 5-{7-[2-(azetidin-1-yl)ethoxy]-1-fluoro-3-hydroxynaphthalen-2-yl}-1λ^6,2,5-thiadiazolidine-1,1,3-trione]	60 to 90%	< 25%	1 to 10 nM
[2H]c1c(O)c(N2C([2H])([2H])C(=O)NS2(=O)=O)c(F)c2cc(OC)ccc12 [Compound 106, 5-[1-fluoro-3-hydroxy-7-methoxy(4-^2H)naphthalen-2-yl](4,4-^2H2)-1λ^6,2,5-thiadiazolidine-1,1,3-trione]	60 to 90%	< 25%	1 to 10 nM
CNc1ccc2cc(O)c(N3CC(=O)NS3(=O)=O)c(F)c2c1 [Compound 107, 5-[1-fluoro-3-hydroxy-7-(methylamino)naphthalen-2-yl]-1λ^6,2,5-thiadiazolidine-1,1,3-trione]	60 to 90%	< 25%	10 to 100 nM
N#CCCCCOc1ccc2cc(O)c(N3CC(=O)NS3(=O)=O)c(F)c2c1 [Compound 111, 5-{[8-fluoro-6-hydroxy-7-(1,1,4-trioxo-1λ^6,2,5-thiadiazolidin-2-yl)naphthalen-2-yl]oxy}pentanenitrile]	60 to 90%	< 25%	< 1 nM
O=C1CN(c2c(O)cc3ccc(OCCN4CCCCC4)cc3c2F)S(=O)(=O)N1 [Compound 112, 5-{1-fluoro-3-hydroxy-7-[2-(piperidin-1-yl)ethoxy]naphthalen-2-yl}-1λ^6,2,5-thiadiazolidine-1,1,3-trione]	25 to 59%	< 25%	10 to 100 nM
O=C1CN(c2c(O)cc3ccc(OCC4CCNCC4)cc3c2F)S(=O)(=O)N1 [Compound 114, 5-{1-fluoro-3-hydroxy-7-[(piperidin-4-yl)methoxy]naphthalen-2-yl}-1λ^6,2,5-thiadiazolidine-1,1,3-trione]	60 to 90%	< 25%	1 to 10 nM
CC(C)(CC#N)CCOc1ccc2cc(O)c(N3CC(=O)NS3(=O)=O)c(F)c2c1 [Compound 115, 5-{[8-fluoro-6-hydroxy-7-(1,1,4-trioxo-1λ^6,2,5-thiadiazolidin-2-yl)naphthalen-2-yl]oxy}-3,3-dimethylpentanenitrile]	60 to 90%	< 25%	< 1 nM
CC(C)(C)CCNc1ccc2cc(O)c(N3CC(=O)NS3(=O)=O)c(F)c2c1 [Compound 116, 5-{7-[(3,3-dimethylbutyl)amino]-1-fluoro-3-hydroxynaphthalen-2-yl}-1λ^6,2,5-thiadiazolidine-1,1,3-trione]	> 90%	< 25%	1 to 10 nM
COc1ccc2c(F)c(O)c(N3CC(=O)NS3(=O)=O)c(F)c2c1 [Compound 117, 5-(1,4-difluoro-3-hydroxy-7-methoxynaphthalen-2-yl)-1λ^6,2,5-thiadiazolidine-1,1,3-trione]	25 to 59%	< 25%	1 to 10 nM
[2H]C([2H])([2H])Oc1ccc2cc(O)c(N3CC(=O)NS3(=O)=O)c(F)c2c1 [Compound 118, 5-{1-fluoro-3-hydroxy-7-[(^2H3)methyloxy]naphthalen-2-yl}-1λ^6,2,5-thiadiazolidine-1,1,3-trione]	60 to 90%	< 25%	1 to 10 nM
COCCOc1ccc2cc(O)c(N3CC(=O)NS3(=O)=O)c(F)c2c1 [Compound 119, 5-[1-fluoro-3-hydroxy-7-(2-methoxyethoxy)naphthalen-2-yl]-1λ^6,2,5-thiadiazolidine-1,1,3-trione]	60 to 90%	< 25%	1 to 10 nM
CC(C)(C#N)CCOc1ccc2cc(O)c(N3CC(=O)NS3(=O)=O)c(F)c2c1 [Compound 120, 4-{[8-fluoro-6-hydroxy-7-(1,1,4-trioxo-1λ^6,2,5-thiadiazolidin-2-yl)naphthalen-2-yl]oxy}-2,2-dimethylbutanenitrile]	60 to 90%	< 25%	< 1 nM
O=C1CN(c2c(O)cc3ccc(C4=CCN(S(=O)(=O)C5CCC5)C4)cc3c2F)S(=O)(=O)N1 [Compound 316, 5-{7-[1-(cyclobutanesulfonyl)-2,5-dihydro-1H-pyrrol-3-yl]-1-fluoro-3-hydroxynaphthalen-2-yl}-1λ^6,2,5-thiadiazolidine-1,1,3-trione]			< 1 nM
COC(=O)[C@@H](N)CCOc1ccc2cc(O)c(N3CC(=O)NS3(=O)=O)c(F)c2c1 [Compound 317, methyl (2S)-2-amino-4-{[8-fluoro-6-hydroxy-7-(1,1,4-trioxo-1λ^6,2,5-thiadiazolidin-2-yl)naphthalen-2-yl]oxy}butanoate]			1 to 10 nM
Cc1n[nH]c(C)c1COc1ccc2cc(O)c(N3CC(=O)NS3(=O)=O)c(F)c2c1 [Compound 318, 5-{7-[(3,5-dimethyl-1H-pyrazol-4-yl)methoxy]-1-fluoro-3-hydroxynaphthalen-2-yl}-1λ^6,2,5-thiadiazolidine-1,1,3-trione]			1 to 10 nM
Cc1n[nH]c(C)c1-c1ccc2cc(O)c(N3CC(=O)NS3(=O)=O)c(F)c2c1 [Compound 319, 5-[7-(3,5-dimethyl-1H-pyrazol-4-yl)-1-fluoro-3-hydroxynaphthalen-2-yl]-1λ^6,2,5-thiadiazolidine-1,1,3-trione]			1 to 10 nM
O=C1CN(c2c(O)cc3ccc(OCCC4CCCCC4)cc3c2F)S(=O)(=O)N1 [Compound 320, 5-[7-(2-cyclohexylethoxy)-1-fluoro-3-hydroxynaphthalen-2-yl]-1λ^6,2,5-thiadiazolidine-1,1,3-trione]			< 1 nM
N#Cc1c[nH]c(-c2ccc3cc(O)c(N4CC(=O)NS4(=O)=O)c(F)c3c2)n1 [Compound 321, 2-[8-fluoro-6-hydroxy-7-(1,1,4-trioxo-1λ^6,2,5-thiadiazolidin-2-yl)naphthalen-2-yl]-1H-imidazole-4-carbonitrile]			1 to 10 nM
